Key:
Assay type in all cases: in vivo
[1] = tested on: human subject suffering from osteoarthritis; test: Example B: oral capsule treatment of osteoarthritis; details: capsule containing 70 mg daily for 5 years
Protocol: A capsule for oral administration, according to the present invention, is made comprising:
A human subject weighing 90 kg (198 lbs.), suffering from osteoarthritis, is treated by a method of this invention. Specifically, for 5 years, a capsule containing 70 mg of the compound of Example 3 is administered daily to said subject.

[2] = tested on: patient suffering from chemical burns; test: Example D: topical composition for chemical burns; details: 0.20% w/v topical composition at each dressing change (b.i.d.)
Description: A topical composition for local administration, according to the present invention, is made comprising:
A patient suffering from chemical burns applies the composition at each dressing change (b.i.d.).

[3] = tested on: patient having deep corneal abrasion; test: Example C: saline-based eye drop for deep corneal abrasion; details: 5% w/w drop to each eye twice a day
Description: A saline-based composition for local administration, according to the present invention, is made comprising:
A patient having deep corneal abrasion applies the drop to each eye twice a day.

[4] = tested on: human subject suffering from rheumatoid arthritis; test: Example A: oral tablet treatment of rheumatoid arthritis; details: tablet with 15 mg compound, three tablets per day orally for 2 years
Protocol: A tablet composition for oral administration, according to the present invention, is made comprising:
A human subject weighing 60 kg (132 lbs), suffering from rheumatoid arthritis, is treated by a method of this invention. Specifically, for 2 years, a regimen of three tablets per day is administered orally to said subject.

asthma sufferer = test: Example E: inhalation aerosol for asthma; details: 5.0% w/v aerosol, 0.01 mL sprayed into the mouth while inhaling
[5] = tested on: human subject with a premetastatic tumor; test: Example G: parenteral suspension injected next to a premetastatic tumor; details: 100 mg/mL suspension, about 2.0 mL injected beside the tumor twice daily, after 30 days
Protocol: A composition for parenteral administration is made comprising:
The above ingredients are mixed, forming a suspension. Approximately 2.0 mL of the suspension is administered, via injection, to a human subject with a premetastatic tumor. The injection site juxtaposes the tumor. This dosage is repeated twice daily, for approximately 30 days.

CN([C@@H](C(=O)O)C1CCC2(CC1)OCCCO2)S(=O)(=O)c1ccc(-c2ccc(Br)cc2)cc1 [Example 3, (R)-N-{[4′-bromo-(1,1′-biphenyl)-4-yl]-sulfonyl}-N-methylamino-(1,5-dioxa-spiro[5.5]undec-9-yl)-acetic Acid]
advancement of erosion/fibrillation of the articular cartilage (x-ray, arthroscopy and/or MRI) [1]: no further advancement

COc1ccc(-c2ccc(S(=O)(=O)N(C)C(C(=O)O)C3CCC(N4CCOC4=O)CC3)cc2)cc1 (centres unmarked) [Example 21, N-{[4′-Methoxy-(1,1′-biphenyl)-4-yl]-sulfonyl-N-methylamino}-[4-(oxazolidin-2-one-3N-yl)-cyclohexan-1-yl]-acetic Acid]
scarring [2]: substantially diminished

COc1ccc(-c2ccc(S(=O)(=O)N(C)C(C(=O)O)C3(SC)CCCC4(C3)OCCO4)cc2)cc1 (centres unmarked) [Example 10, (7-methylthio-1,4-Dioxaspiro[4.5]dec-7-yl)-N-{[4′-Methoxy-(1,1′-biphenyl)-4-yl]-sulfonyl}-N-methylamino-acetic Acid]
healing of corneal abrasion [3]: speeded
visual sequelae [3]: no visual sequelae

COc1ccc(-c2ccc(S(=O)(=O)N(C)C(C(=O)O)C3CCC(O)CC3)cc2)cc1 (centres unmarked) [Example 1, N-{[4′-Methoxy-(1,1′-biphenyl)-4-yl]-sulfonyl-N-methyl-amino}-(4-hydroxycyclohexan-1-yl)-acetic Acid]
inflammation at end of treatment period [4]: reduced inflammation
mobility and pain at end of treatment period [4]: improved mobility without concomitant pain

COc1ccc(-c2ccc(S(=O)(=O)N(C)C(C(=O)O)C3CCC(N4CCCC4=O)CC3)cc2)cc1 (centres unmarked) [Example 19, N-{[4′-Methoxy-(1,1′-biphenyl)-4-yl]-sulfonyl-N-methylamino}-[4-(2-oxopyrrolidin-1N-yl)-cyclohexan-1-yl]-acetic Acid]
asthma symptoms (asthma sufferer): diminished

COc1ccc(-c2ccc(S(=O)(=O)N(C)[C@@H](C(=O)O)C3CCC4(CC3)OCCCO4)cc2)cc1 [Example 2, (R)-N-{[4′-methoxy-(1,1′-biphenyl)-4-yl]-sulfonyl}-N-methylamino-(1,5-dioxa-spiro[5.5]undec-9-yl)-acetic Acid]
symptoms of the disease [5]: subside
